The record followed here is US6967196B1, “Sulfonamide compounds and uses thereof” (Bristol-Myers Squibb Company, priority 1999, dated 2005).

Counter-ions that a name gives are not always drawn.

The first assay concerns amyloid β production in transfected H4 (human neuroglioma) cells stably expressing APP constructs. As to the kind of experiment: In vitro cell-based assay of inhibitors of amyloid β production (ELISA). Conditions: Homo sapiens, 16 h, transfected H4 cells expressing APP, approximately 16 hours incubation, amyloid β in medium by ELISA; read-out: ACTIVITY (IC50, inhibition of amyloid β production). In outline:
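Test agents are screened at 10-100 μM for about 16 hours on cells stably expressing wild-type or variant APP. Secreted Aβ is measured by ELISA and compared with control-treated cells.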
In the case of `C[C@H](C(=O)NCCCN1CCOCC1)N(c1cc(Cl)ccc1F)S(=O)(=O)c1ccc(Cl)cc1` [Example 1322], the IC50 is more than 500 nM.

`C[C@H](C(=O)Nc1ccc2[nH]ncc2c1)N(c1cc(Cl)ccc1F)S(=O)(=O)c1ccc(Cl)cc1` [Example 1311]: the IC50 is more than 500 nM. In the case of `CC(C(=O)N[C@@H]1C[C@H]2CC[C@@H]1CC2)N(c1cc(Cl)ccc1F)S(=O)(=O)c1ccc(Cl)cc1` (some centres unmarked) [Example 1358], the IC50 lay in the range of 100 to 500 nM. Regarding `C[C@H](C(=O)NCc1ccc2c(c1)OCO2)N(c1cc(Cl)ccc1F)S(=O)(=O)c1ccc(Cl)cc1` [Example 1319], the IC50 was more than 500 nM. With `C[C@H](C(=O)NCCc1ccc(Cl)cc1Cl)N(c1cc(Cl)ccc1F)S(=O)(=O)c1ccc(Cl)cc1` [Example 1305], the IC50 is more than 500 nM. Consider `C[C@H](C(=O)N[C@H](C)C1CCCCC1)N(c1cc(Cl)ccc1F)S(=O)(=O)c1ccc(Cl)cc1` [Example 1351], for which the IC50 is more than 500 nM.

Staying with this assay, now noted: Homo sapiens, 16 h, transfected H4 cells stably expressing APP; approximately 16 hours incubation; amyloid β in medium by ELISA; Table B; read-out: ACTIVITY (IC50, inhibition of amyloid β production).
`CCN(CCOc1ccccc1C(C)N(c1cc(F)ccc1F)S(=O)(=O)c1ccc(Cl)cc1)C(=O)CSc1ccccc1` (centres unmarked) [Example 417, N-{2-[2-(1-{[(4-chlorophenyl)sulfonyl]-2,5-difluoroanilino}ethyl)phenoxy]ethyl}-N-ethyl-2-(phenylsulfanyl)acetamide]: the half-inhibitory concentration (IC50) is 50 to 100 nM.

Staying with this assay, now noted: Homo sapiens, 16 h, transfected H4 cells stably expressing APP; approximately 16 hours incubation; amyloid β in medium by ELISA; read-out: ACTIVITY (IC50, inhibition of amyloid β production).
For the compound `O=S(=O)(c1ccc(Cl)cc1)N(Cc1ccccc1OCCCN1CCCCCC1)c1ccccc1` [Example 851, N-{2-[3-(1-azepanyl)propoxy]benzyl}-4-chloro-N-phenylbenzenesulfonamide hydrochloride], the IC50 lay within 100 to 500 nM.

Turning to `O=S(=O)(c1ccc(Cl)cc1)N(CCc1ccccc1OCCCN1CCCCC1)c1ccccc1` [Example 972, 4-chloro-N-phenyl-N-(2-{2-[3-(1-piperidinyl)propoxy]phenyl}ethyl)benzenesulfonamide hydrochloride], the IC50 was more than 500 nM. Same read-out and setting: then `CSc1ccc(N(Cc2ccccc2OCCCN2CCCCC2)S(=O)(=O)c2ccc(Cl)cc2)cc1` [Example 1019, 4-chloro-N-[4-(methylsulfanyl)phenyl]-N-{2-[3-(1-piperidinyl)propoxy]benzyl}benzenesulfonamide hydrochloride], with more than 500 nM.

Still in this assay, the particulars now being: transfected H4 cells expressing APP, approximately 16 hours incubation, amyloid β in medium by ELISA; read-out: ACTIVITY (IC50, inhibition of amyloid β production).
Consider `COc1cccc(OC)c1CNC(=O)[C@@H](C)N(c1cc(Cl)ccc1F)S(=O)(=O)c1ccc(Cl)cc1` [Example 1364], for which the IC50 was more than 500 nM.

Still in this assay, the particulars now being: transfected H4 cells stably expressing APP constructs; approximately 16 hours incubation; amyloid β in medium by ELISA; read-out: ACTIVITY (IC50, inhibition of amyloid β production).
`C[C@H](CCCN1CCC(CS(C)(=O)=O)CC1)N(c1cc(Cl)ccc1Cl)S(=O)(=O)c1ccc(Cl)cc1` [Example 1157, 4-chloro-N-(2,5-dichlorophenyl)-N-[4-[[4-(methylsulfonyl)methyl]-1-piperidinyl]-1(R)-methylbutyl)benzenesulfonamide]: the IC50 lay within 100 to 500 nM. Regarding `C[C@H](CCCS(=O)(=O)C(C)(C)C)N(c1cc(Cl)ccc1CO)S(=O)(=O)c1ccc(Cl)cc1` [Example 1218], the IC50 was not above 25 nM.

For the compound `CC(C)N(CCCn1ccnc1)C(=O)OC[C@@H](C)N(c1cc(Cl)ccc1CO)S(=O)(=O)c1ccc(Cl)cc1` [Example 1252, 4-Chloro-N-[5-chloro-2-(hydroxymethyl)phenyl]-N-[2-[[[N′-[3-(1H-imidazol-1-yl)propyl]-N′-(2-methylethyl)amino]carbonyl]oxy]-(R)-1-methylethyl]benzenesulfonamide], the IC50 was not above 25 nM.

Staying with this assay, now noted: transfected H4 cells stably expressing APP; approx. 16 h incubation; amyloid β in medium by ELISA; read-out: ACTIVITY (IC50, inhibition of amyloid β production).
On to `CC(c1ccccc1OCCCN(C)S(=O)(=O)c1cccc(C(F)(F)F)c1)N(c1cc(F)ccc1F)S(=O)(=O)c1ccc(Cl)cc1` (centres unmarked) [Example 788, N-{3-[2-(1-{[(4-chlorophenyl)sulfonyl]-2,5-difluoroanilino}ethyl)phenoxy]propyl}-N-methyl-3-(trifluoromethyl)benzenesulfonamide], for which the IC50 lay in the range of 100 to 500 nM. Take “N-{3-[2-(1-{[(4-chlorophenyl)sulfonyl]-2,5-difluoroanilino}ethyl)phenoxy]propyl}-4-nitrobenzamide [Example 805]”: the 50% inhibitory concentration (IC50) lay in the range of 100 to 500 nM. On the same count and under the same terms, the same measure for “N-{3-[2-(1-{[(4-chlorophenyl)sulfonyl]-2,5-difluoroanilino}ethyl)phenoxy]propyl}-N-methyl-3-(trifluoromethyl)benzamide [Example 657]”: 100 to 500 nM.

The same assay, now with this note: transfected H4 cells stably expressing APP; approximately 16 hours incubation; amyloid β in medium by ELISA; Table B; read-out: ACTIVITY (IC50, inhibition of amyloid β production).
For `O=S(=O)(c1ccc(Cl)cc1)N(Cc1ccccc1OCCCN1CCCCC1)C1CCOCC1` [Example 271, 4-Chloro-N-{2-[3-(1-piperidinyl)propoxy]benzyl}-N-tetrahydro-2H-pyran-4-ylbenzenesulfonamide hydrochloride], the IC50 was 25 to 50 nM.

For `C[C@H](c1ccc(F)cc1CCCC(=O)O)N(c1cc(F)ccc1F)S(=O)(=O)c1ccc(Cl)cc1` [Example 494, 4-[2-((1R)-1-{[(4-chlorophenyl)sulfonyl]-2,5-difluoroanilino}ethyl) 5-fluorophenyl]butanoic Acid], the IC50 is 100 to 500 nM.

Still in this assay, the particulars now being: transfected H4 cells stably expressing APP; approximately 16 hours incubation; amyloid β in medium by ELISA; read-out: ACTIVITY (IC50, inhibition of amyloid β production).
In the case of “3,5-dichloro-N-{3-[2-(1-{[(4-chlorophenyl)sulfonyl]-2,5-difluoroanilino}ethyl)phenoxy]propyl}-N-methylbenzamide [Example 950]”, the IC50 is more than 500 nM. In the case of “N-{3-[2-({[(4-chlorophenyl)sulfonyl]-2,5-difluoroanilino}methyl)phenoxy]propyl}-N-methyl-4-(trifluoromethyl)benzamide [Example 898]”, the IC50 is more than 500 nM. For “2-((1R)-1-{[(4-chlorophenyl)sulfonyl]-2,5-difluoroanilino}ethyl)benzyl diethylcarbamate [Example 894]”, the IC50 is more than 500 nM.

As to `C[C@H](c1ccc(F)cc1CCCC(=O)O)N(c1cc(F)ccc1F)S(=O)(=O)c1ccc(Cl)cc1` [Example 1067, 4-[2-((1R)-1-{[(4-chlorophenyl)sulfonyl]-2,5-difluoroanilino}ethyl)-5-fluorophenyl]butanoic acid], the IC50 is more than 500 nM. Same read-out and setting: the same measure for “3-[2-(2-{[(4-chlorophenyl)sulfonyl]-2,5-difluoroanilino}-1-methylethyl)-5-fluorophenyl]butanoic acid [Example 940]”: more than 500 nM; for `CC(c1ccccc1OCCCN(C)C(=O)c1ccc(-c2ccccc2)cc1)N(c1cc(F)ccc1F)S(=O)(=O)c1ccc(Cl)cc1` (centres unmarked) [Example 840, N-{3-[2-(1-{[(4-chlorophenyl)sulfonyl]-2,5-difluoroanilino}ethyl)phenoxy]propyl}-N-methyl[1,1′-biphenyl]-4-carboxamide]: 100 to 500 nM. `C[C@H](c1ccccc1CN1CCCCC1)N(c1cc(F)ccc1F)S(=O)(=O)c1ccc(Cl)cc1` [Example 939, 4-chloro-N-(2,5-difluorophenyl)-N-{(1R)-1-[2-(1-piperidinylmethyl)phenyl]ethyl}benzenesulfonamide hydrochloride]: the IC50 is more than 500 nM. In the case of `O=C(OC[C@H](c1ccccc1)N(c1cc(F)ccc1F)S(=O)(=O)c1ccc(Cl)cc1)c1cccnc1` [Example 1006, (2S)-2-({[(4-chlorophenyl)sulfonyl]-2,5-difluoroanilino}-2-phenylethyl nicotinate], the IC50 is more than 500 nM. For the compound `COC(=O)[C@H](c1ccccc1)N(c1cc(F)ccc1F)S(=O)(=O)c1ccc(Cl)cc1` [Example 987, methyl (2S)-1-{[(4-chlorophenyl)sulfonyl]-2,5-difluoroanilino}(phenyl)ethanoate], the IC50 was more than 500 nM.

On to “2,4-dichloro-N-{3-[2-({[(4-chlorophenyl)sulfonyl]-2,5-difluoroanilino}methyl)phenoxy]propyl}-5-fluoro-N-methylbenzamide [Example 896]”, for which the half-maximal inhibitory concentration (IC50) is more than 500 nM.
